Legend:
Format in all cases: physicochemical
[1] = Observation test of long-term sample storage
[2] = High temperature test (60° C.); settings: for Change of appearance in high temperature test (in words) / Change of content in high temperature test (in words): summary of 10-day test
From the text: (§1) The conditions and methods of related substance test involved in this invention was in accordance with HPLC (Appendix VD of Chinese Pharmacopoeia, Vol. II, (2005)).
(§2) Chromatographic conditions and system applicability:
(§3) octadecylsilane bonded silica as the filler; 0.05 mol/L of potassium dihydrogen phosphate (adjusted to pH 2.5 by phosphoric acid)-methanol (45:55) as the mobile phase; detection wavelength was 230 nm; the number of theoretical plates should be not less than 2000, calculated according to the peak area of Dasatinib. The resolution of the peak of Dasatinib from the peaks of adjacent impurities should meet requirements.
(§4) Test Method: the sample was weight and dissolved into mobile phase to be the solution containing 0.5 mg per mL, and 20 μL of this solution was taken and injected into liquid chromatography. Chromatogram was recorded until it is 6 times as the retention time of the main peak.
2.2 High Temperature Test
The raw material of Polymorph I of Dasatinib monohydrate was put into a clean sealed glass bottle and then put in thermostatic drying chamber at 60° C. Sample was tested at the 5th and 10th day respectively and the results were contrasted with that of the Day 0. Results were listed in Tab. 3.
The raw material of Polymorph II of Dasatinib was put into a clean sealed glass bottle and then put in thermostatic drying chamber at 60° C. Sample was tested at the 5th and 10th day respectively and the results were contrasted with that of the Day 0. Results were listed in Tab. 8.

[3] = Loss and regain of crystal water (sealed with strong dehydrating agent, then air)
[4] = Accelerated test (40° C. and 75% relative humidity); settings: for Appearance / Content / Related substances: 40° C., 75% relative humidity; for Physical and chemical characteristic in accelerated test (in words): summary of six-month test
From the text: as §1, §2, §3, §4
(§5) The raw material of Polymorph I of Dasatinib was hermetically packed in plastic bags of polyethylene film and put in thermostatic and humidostatic incubator at 40±2° C. and 75±5% relative humidity for six months. Sample was tested at the end of the 1st, 2nd, 3rd and 6th month respectively and the results were contrasted with that of the zeroth month. Results were listed in Tab. 5.
as §5, with “II” for “I”, “10.” for “5.”

[5] = High humidity test (room temperature, 75 ± 5% relative humidity); settings: for Hydroscopic property: high humidity test; for Appearance / Content / Weight gain of moisture absorption: room temperature, 75 ± 5% relative humidity; for Change of appearance in high humidity test (in words) / Change of content in high humidity test (in words): summary of 10-day test
Method: (§6) The raw material of Polymorph I of Dasatinib monohydrate was distributed homogeneously in open petri dish with thickness of the raw material not more than 5 mm and put into thermostatic and humidostatic incubator at room temperature (about 25° C.) and 75±5% relative humidity. Sample was tested at the 5th and 10th day respectively and the results were contrasted with that of the Day 0. Results were listed in Tab. 4.
as §6, with “II” for “I”, “Dasatinib” for “Dasatinib monohydrate”, “9.” for “4.”

SMILES: Cc1nc(Nc2ncc(C(=O)Nc3c(C)cccc3Cl)s2)cc(N2CCN(CCO)CC2)n1 [Polymorph I, N-(2-chloro-6-methylphenyl)-2-[[6-[4-(2-hydroxyethyl)-1-piperazinyl]-2-methyl-4-pyrimidyl]amino]-5-thiazolformamide]
- Change of content (in words) [1]: decreased slightly
- Change of related substances (in words) [1]: increased slightly
- Crystal transformation [1]: not found
- Appearance ([2]; day 0): white powder
- Content ([2]; day 0): 99.8%
- Related substance ([2]; day 0): 0.06%
- Appearance ([2]; day 5): white powder
- Content ([2]; day 5): 99.7%
- Related substance ([2]; day 5): 0.09%
- Appearance ([2]; day 10): white powder
- Content ([2]; day 10): 99.5%
- Related substance ([2]; day 10): 0.12%
- Change of appearance in high temperature test (in words) [2]: few obvious change
- Change of content in high temperature test (in words) [2]: went down marginally
- Behaviour in a sealed surrounding with strong dehydrating agent ([3]; allochroic silicagel, phosphorus pentoxide etc.): lose crystal water (partly to all) step by step
- Behaviour of the polymorph losing part crystal moisture in air environment ([3]; put in air environment): return to the Polymorph I with one crystal water step by step
- Appearance ([4]; month 0): white powder
- Content ([4]; month 0): 99.7%
- Related substances ([4]; month 0): 0.07%
- Appearance ([4]; month 1): white powder
- Content ([4]; month 1): 99.6%
- Related substances ([4]; month 1): 0.07%
- Appearance ([4]; month 2): white powder
- Content ([4]; month 2): 99.6%
- Related substances ([4]; month 2): 0.08%
- Appearance ([4]; month 3): white powder
- Content ([4]; month 3): 99.6%
- Related substances ([4]; month 3): 0.08%
- Appearance ([4]; month 6): white powder
- Content ([4]; month 6): 99.5%
- Related substances ([4]; month 6): 0.09%
- Physical and chemical characteristic in accelerated test (in words) [4]: relatively stable
- Hydroscopic property [5]: lower
- Appearance ([5]; day 0): white powder
- Content ([5]; day 0): 99.7%
- Weight gain of moisture absorption ([5]; day 0): 3.57%
- Appearance ([5]; day 5): white powder
- Content ([5]; day 5): 99.6%
- Weight gain of moisture absorption ([5]; day 5): 3.73%
- Appearance ([5]; day 10): white powder
- Content ([5]; day 10): 99.7%
- Weight gain of moisture absorption ([5]; day 10): 3.76%
- Change of appearance in high humidity test (in words) [5]: no obvious change
- Change of content in high humidity test (in words) [5]: no obvious change

SMILES: Cc1nc(Nc2ncc(C(=O)Nc3c(C)cccc3Cl)s2)cc(N2CCN(CCO)CC2)n1 [Polymorph II, N-(2-chloro-6-methylphenyl)-2-[[6-[4-(2-hydroxyethyl)-1-piperazinyl]-2-methyl-4-pyrimidyl]amino]-5-thiazolformamide]
- Content ([2]; day 0): 99.8%
- Related substance ([2]; day 0): 0.06%
- Content ([2]; day 5): 99.7%
- Related substance ([2]; day 5): 0.11%
- Content ([2]; day 10): 99.4%
- Related substance ([2]; day 10): 0.16%
- Change of appearance in high temperature test (in words) [2]: few obvious change
- Change of content in high temperature test (in words) [2]: few obvious change
- Appearance ([4]; month 0): white powder
- Content ([4]; month 0): 99.8%
- Related substances ([4]; month 0): 0.06%
- Appearance ([4]; month 1): white powder
- Content ([4]; month 1): 99.7%
- Related substances ([4]; month 1): 0.07%
- Appearance ([4]; month 2): white powder
- Content ([4]; month 2): 99.8%
- Related substances ([4]; month 2): 0.08%
- Appearance ([4]; month 3): white powder
- Content ([4]; month 3): 99.6%
- Related substances ([4]; month 3): 0.07%
- Appearance ([4]; month 6): white powder
- Content ([4]; month 6): 99.6%
- Related substances ([4]; month 6): 0.08%
- Physical and chemical characteristic in accelerated test (in words) [4]: of relative stability
- Hydroscopic property [5]: lower
- Appearance ([5]; day 0): white powder
- Content ([5]; day 0): 99.8%
- Weight gain of moisture absorption ([5]; day 0): 0.57%
- Appearance ([5]; day 5): white powder
- Content ([5]; day 5): 99.7%
- Weight gain of moisture absorption ([5]; day 5): 3.63%
- Appearance ([5]; day 10): white powder
- Content ([5]; day 10): 99.8%
- Weight gain of moisture absorption ([5]; day 10): 3.72%
- Change of appearance in high humidity test (in words) [5]: no obvious change
- Change of content in high humidity test (in words) [5]: no obvious change
